Molecular target: T1, 15-hydroxyprostaglandin dehydrogenase [NAD(+)] (Homo sapiens, UniProt P15428)
T1 sequence (P15428 whole entry): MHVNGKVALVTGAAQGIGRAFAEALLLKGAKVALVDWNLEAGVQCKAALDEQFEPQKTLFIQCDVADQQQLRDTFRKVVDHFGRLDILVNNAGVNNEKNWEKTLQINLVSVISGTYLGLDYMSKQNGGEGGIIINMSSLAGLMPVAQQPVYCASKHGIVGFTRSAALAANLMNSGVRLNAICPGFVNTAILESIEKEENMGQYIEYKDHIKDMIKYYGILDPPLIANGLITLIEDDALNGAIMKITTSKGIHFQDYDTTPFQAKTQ
Assay: Inhibition of human 15PGDH expressed in Escherichia coli BL-21 by fluorescence spectrophotometry

| SMILES | IC50 |
| --- | --- |
| O=C1N=C(O)S/C1=C\c1ccc(OCCNC2CCCCC2)cc1 | 3720 nM |
| Cc1ncsc1CCOc1ccc(/C=C2\SC(O)=NC2=O)cc1 | 636 nM |
| O=C1NC(=O)/C(=C/c2ccc(OCC3CCCC3)cc2)S1 | 45 nM |
| O=C1NC(=O)/C(=C/c2ccc(OCCC3CCCC3)cc2)S1 | 116 nM |
| O=C1N=C(O)S/C1=C\c1ccc(OCCCN2CCS(=O)(=O)CC2)cc1 | 1960 nM |
| O=C1S/C(=C\c2ccc(OCCC3CCCCC3)cc2)C(=O)N1CCO | 526 nM |
| O=C1NC(=O)/C(=C/c2ccc(OCCc3ccsc3)cc2)S1 | 60 nM |
| O=C1NC(=O)/C(=C\c2ccc(OCc3ccc(-c4ccccc4)cc3)cc2)S1 | 814 nM |
| COc1ccc(COc2ccc(/C=C3\SC(=O)NC3=O)cc2)cc1 | 529 nM |
| O=C1N=C(O)S/C1=C\c1ccc(OCCN2CCS(=O)(=O)CC2)cc1 | 274 nM |
| CC1CCC(COc2ccc(/C=C3\SC(O)=NC3=O)cc2)CC1 (stereo unspecified) | 52 nM |
| O=C1N=C(O)S/C1=C\c1ccc(OCc2ccsc2)cc1 | 429 nM |
| O=C1NC(=O)/C(=C/c2ccc(OCCC3CCCCO3)cc2)S1 (stereo unspecified) | 750 nM |
| O=C1NC(=O)/C(=C/c2ccc(OCc3cccs3)cc2)S1 | 287 nM |
| O=C1N=C(O)S/C1=C\c1ccc(OCCc2ccccn2)cc1 | 660 nM |
| O=C1N=C(O)S/C1=C\c1ccc(OCCc2cccs2)cc1 | 31 nM |
| Cc1ccc(COc2ccc(/C=C3\SC(O)=NC3=O)cc2)cc1 | 232 nM |

Continued by falling IC50, values first:

| IC50 | SMILES |
| --- | --- |
| 3790 nM | O=C1C/C(=C\c2ccc(OCCC3CCCCC3)cc2)C(=O)N1 |
| 1440 nM | O=C1N=C(O)S/C1=C\c1ccc(OCCN2CCCCC2)cc1 |
| 1250 nM | CC(C)OCCOc1ccc(/C=C2\SC(O)=NC2=O)cc1 |
| 893 nM | O=C1NC(=O)/C(=C/c2ccc(OCc3ccco3)cc2)S1 |
| 865 nM | O=C1NC(=O)/C(=C/c2ccc(OCCC3CCCCC3)cc2)N1 |
| 713 nM | O=C1NC(=O)/C(=C/c2ccc(OCCN3CCOCC3)cc2)S1 |
| 620 nM | COC(=O)C1CCC(COc2ccc(/C=C3\SC(=O)NC3=O)cc2)CC1 (stereo unspecified) |
| 252 nM | O=C1N=C(O)S/C1=C\c1ccc(OCc2ccc3c(c2)OCO3)cc1 |
| 172 nM | O=C1NC(=O)/C(=C\c2ccc(OCC3COc4ccccc4O3)cc2)S1 (stereo unspecified) |

— ChEMBL document CHEMBL1156934, “Synthesis and SAR of thiazolidinedione derivatives as 15-PGDH inhibitors” (Bioorg Med Chem, 2010)
